Experiment: rapid insulin sensitivity test (RIST) in human volunteers before and after a standardized test meal
Format: in vivo
Settings: 50 mU/kg insulin bolus i.v., average from 5 subjects
Procedure: Human volunteers were fasted overnight and submitted to a RIST. A stable glycemic baseline level was established by determining three consecutive stable venous glucose concentrations obtained at 5-minute intervals. […] Arterialized venous glucose concentrations were determined at 2-minute intervals and a variable glucose infusion pump was adjusted to maintain a constant blood glucose level. After completion of the first RIST index, a standardized meal consisting of a wheat-based biscuit containing 50 grams of carbohydrate was consumed within a 10-minute period. Venous glucose measurements were determined at 5-minute intervals until a new stable baseline was obtained whereupon a second RIST was carried out.
In FIG. 6, the difference between the results is plotted and is attributed to HISS action. […] Thus, the test meal provided a sufficient feeding signal to allow HISS release.

insulin
RIST index (glucose disposal in response to the insulin bolus) (human subjects after test meal (wheat-based biscuit, 50 grams of carbohydrate)): 502 mg/kg
RIST index (glucose disposal in response to the insulin bolus) (human subjects fasted overnight): 180 mg/kg

Reference: US20070009438A1, “Method for diagnosing diabetes type 2 using standardized mixed meal and calculated index values” (DiaMedica Inc., priority 2003, published 2007)
